Measurements reported in ChEMBL document CHEMBL4387753 (Bioorg Med Chem, 2019).
Values after ≈ are worked out from the molar mass of the structure shown. Active and inactive are the calls of the source. The rule behind the calls is not given here.

How the values were obtained:
Escherichia coli = assay: Antibacterial activity against Escherichia coli ATCC 25922 incubated for 24 hrs by CLSI protocol based broth microdilution method; assay type: functional; conditions: ATCC 25922, 24 h
Bacillus subtilis = assay: Antibacterial activity against Bacillus subtilis ATCC 9372 incubated for 24 hrs by CLSI protocol based broth microdilution method; assay type: functional; conditions: ATCC 9372, 24 h
Staphylococcus aureus [1] = assay: Antibacterial activity against methicillin-resistant Staphylococcus aureus ATCC 43300 incubated for 24 hrs by CLSI protocol based broth microdilution method; assay type: functional; conditions: ATCC 43300, 24 h
Staphylococcus aureus [2] = assay: Antibacterial activity against penicillin-resistant Staphylococcus aureus clinical isolate incubated for 24 hrs by CLSI protocol based broth microdilution method; assay type: functional
Staphylococcus aureus [3] = assay: Antibacterial activity against Staphylococcus aureus ATCC 25923 incubated for 24 hrs by CLSI protocol based broth microdilution method; assay type: functional; conditions: ATCC 25923, 24 h
Bacillus pumilus = assay: Antibacterial activity against Bacillus pumilus CMCC63202 incubated for 24 hrs by CLSI protocol based broth microdilution method; assay type: functional; conditions: CMCC63202, 24 h
Pseudomonas aeruginosa = assay: Antibacterial activity against Pseudomonas aeruginosa ATCC 27853 incubated for 24 hrs by CLSI protocol based broth microdilution method; assay type: functional; conditions: ATCC 27853, 24 h
Staphylococcus aureus [4] = assay: Antibacterial activity against Staphylococcus aureus clinical isolate incubated for 24 hrs by CLSI protocol based broth microdilution method; assay type: functional
[5] = target: T1, Cell division protein FtsZ (Bacillus subtilis (strain 168)) (UniProt P17865); assay: Induction of Bacillus subtilis FtsZ polymerization in presence of GTP at 5 ug/ml measured over 30 mins by microtiter plate-based light-scattering assay
T1 sequence (whole entry): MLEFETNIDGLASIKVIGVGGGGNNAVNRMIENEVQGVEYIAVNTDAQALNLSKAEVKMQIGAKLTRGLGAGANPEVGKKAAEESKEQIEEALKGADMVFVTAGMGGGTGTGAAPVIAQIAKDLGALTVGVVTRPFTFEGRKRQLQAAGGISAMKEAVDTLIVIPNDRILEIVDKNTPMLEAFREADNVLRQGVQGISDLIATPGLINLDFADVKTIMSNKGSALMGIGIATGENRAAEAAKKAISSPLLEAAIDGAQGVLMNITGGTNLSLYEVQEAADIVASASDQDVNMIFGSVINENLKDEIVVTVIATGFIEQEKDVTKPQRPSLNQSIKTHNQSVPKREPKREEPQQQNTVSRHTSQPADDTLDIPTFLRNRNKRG

SMILES | MIC (Escherichia coli) | MIC (Bacillus subtilis) | MIC (Staphylococcus aureus [1]) | MIC (Staphylococcus aureus [2]) | MIC (Staphylococcus aureus [3]) | MIC (Bacillus pumilus) | MIC (Pseudomonas aeruginosa) | MIC (Staphylococcus aureus [4]) | Activity [5]
CC(C)(C)c1ccc(Cn2nc(COc3ccc(F)c(C(N)=O)c3F)oc2=O)cc1 | > 64 µg/mL | 32 µg/mL (≈ 76.7 µM) | > 64 µg/mL | > 64 µg/mL | > 64 µg/mL | 32 µg/mL (≈ 76.7 µM) | > 64 µg/mL | > 64 µg/mL | 
CCc1ccc(-n2nc(COc3ccc(F)c(C(N)=O)c3F)oc2=O)cc1 | > 64 µg/mL | 0.5 µg/mL (≈ 1.33 µM) | 2 µg/mL (≈ 5.33 µM) | 4 µg/mL (≈ 10.7 µM) | 2 µg/mL (≈ 5.33 µM) | 4 µg/mL (≈ 10.7 µM) | > 64 µg/mL | 2 µg/mL (≈ 5.33 µM) | 
Cc1ccc(-n2nc(COc3ccc(F)c(C(N)=O)c3F)oc2=O)c(C)c1 | > 64 µg/mL | 2 µg/mL (≈ 5.33 µM) | 16 µg/mL (≈ 42.6 µM) | 64 µg/mL (≈ 171 µM) | 32 µg/mL (≈ 85.3 µM) | 2 µg/mL (≈ 5.33 µM) | > 64 µg/mL | 32 µg/mL (≈ 85.3 µM) | 
Cc1ccccc1-n1nc(COc2ccc(F)c(C(N)=O)c2F)oc1=O | > 64 µg/mL | 16 µg/mL (≈ 44.3 µM) | 64 µg/mL (≈ 177 µM) | > 64 µg/mL | > 64 µg/mL | 16 µg/mL (≈ 44.3 µM) | > 64 µg/mL | > 64 µg/mL | 
COc1cccc(-n2nc(COc3ccc(F)c(C(N)=O)c3F)oc2=O)c1 | > 64 µg/mL | 16 µg/mL (≈ 42.4 µM) | > 64 µg/mL | > 64 µg/mL | 64 µg/mL (≈ 170 µM) | > 64 µg/mL | > 64 µg/mL | 64 µg/mL (≈ 170 µM) | 
NC(=O)c1c(F)ccc(OCc2nn(-c3ccc(Cl)cc3)c(=O)o2)c1F | > 64 µg/mL | 0.25 µg/mL (≈ 0.655 µM) | 2 µg/mL (≈ 5.24 µM) | 2 µg/mL (≈ 5.24 µM) | 1 µg/mL (≈ 2.62 µM) | 2 µg/mL (≈ 5.24 µM) | > 64 µg/mL | 2 µg/mL (≈ 5.24 µM) | 
NC(=O)c1c(F)ccc(OCC2=NN(c3ccc(Br)cc3)C(=O)C2)c1F | > 64 µg/mL | > 64 µg/mL | > 64 µg/mL | > 64 µg/mL | > 64 µg/mL | > 64 µg/mL | > 64 µg/mL |  | inactive
CC(C)(C)c1ccc(-n2nc(CCOc3ccc(F)c(C(N)=O)c3F)oc2=O)cc1 | > 64 µg/mL | 0.25 µg/mL (≈ 0.599 µM) | 1 µg/mL (≈ 2.4 µM) | 4 µg/mL (≈ 9.58 µM) | 4 µg/mL (≈ 9.58 µM) | ≤ 0.125 µg/mL | > 64 µg/mL | 2 µg/mL (≈ 4.79 µM) | 
N#Cc1ccc(-n2nc(COc3ccc(F)c(C(N)=O)c3F)oc2=O)cc1 | > 64 µg/mL | 2 µg/mL (≈ 5.37 µM) | 4 µg/mL (≈ 10.7 µM) | 8 µg/mL (≈ 21.5 µM) | 4 µg/mL (≈ 10.7 µM) | 4 µg/mL (≈ 10.7 µM) | > 64 µg/mL | 16 µg/mL (≈ 43 µM) | 
Cc1ccc(-c2nn(COc3ccc(F)c(C(N)=O)c3F)c(=O)o2)cc1 | > 64 µg/mL | > 64 µg/mL | > 64 µg/mL | > 64 µg/mL | > 64 µg/mL | > 64 µg/mL | > 64 µg/mL | > 64 µg/mL | 
NC(=O)c1c(F)ccc(OCc2nn(-c3ccc(C(F)(F)F)cc3)c(=O)o2)c1F | > 64 µg/mL | 0.125 µg/mL (≈ 0.301 µM) | 2 µg/mL (≈ 4.82 µM) | 4 µg/mL (≈ 9.63 µM) | 4 µg/mL (≈ 9.63 µM) | 2 µg/mL (≈ 4.82 µM) | > 64 µg/mL | 4 µg/mL (≈ 9.63 µM) | 
NC(=O)c1c(F)ccc(OCn2nc(-c3ccc(Cl)cc3)oc2=O)c1F | > 64 µg/mL | > 64 µg/mL | > 64 µg/mL | > 64 µg/mL | > 64 µg/mL | > 64 µg/mL | > 64 µg/mL | > 64 µg/mL | inactive
CCn1c(COc2ccc(F)c(C(N)=O)c2F)nn(-c2ccc(Br)cc2)c1=O | > 64 µg/mL | > 64 µg/mL | > 64 µg/mL | > 64 µg/mL | > 64 µg/mL | > 64 µg/mL | > 64 µg/mL |  | inactive
NC(=O)c1c(F)ccc(OCc2nn(-c3ccc(Cl)cc3Cl)c(=O)o2)c1F | > 64 µg/mL | 1 µg/mL (≈ 2.4 µM) | 2 µg/mL (≈ 4.81 µM) | 4 µg/mL (≈ 9.61 µM) | 4 µg/mL (≈ 9.61 µM) | 0.5 µg/mL (≈ 1.2 µM) | > 64 µg/mL | 4 µg/mL (≈ 9.61 µM) | 
NC(=O)c1c(F)ccc(OCc2nn(-c3ccc(F)cc3)c(=O)o2)c1F | > 64 µg/mL | 2 µg/mL (≈ 5.48 µM) | 8 µg/mL (≈ 21.9 µM) | 16 µg/mL (≈ 43.8 µM) | 16 µg/mL (≈ 43.8 µM) | 8 µg/mL (≈ 21.9 µM) | > 64 µg/mL | 2 µg/mL (≈ 5.48 µM) | 
